In test [1] the target is phencyclidine (PCP) receptors. In words: Inhibition of [^3 H]TCP receptor binding (RBS1). As for the experimental part:
The ability of the compounds of the instant invention to interact with phencyclidine (PCP) receptors which represents a noncompetitive NMDA antagonist binding site, is shown in Table 1. Tritiated 1[1-(2-thienyl)cyclohexyl]piperidine (TCP) binding, designated RBS1, was carried out essentially as described in J. Pharmacol. Exp. Ther., 238, 739-749 (1986).

Test [2] relates to cultured rat cortical neurons. The test can be described thus: Inhibition of glutamate stimulated [^45 Ca] influx (GCI) into cultured rat cortical neurons. Particulars: Cortical neurone, read-out: CGCI IC50. It counts as cell-based. From the text: (§1) Since the influx of calcium is thought to be central to the damage resulting from ischemia, the ability of the compounds of the instant invention to inhibit the hypoxia and glutamate-stimulated influx of calcium into cultured rat cortical neurons (an assay representative of cerebrovascular disorders resulting from stroke or brain injury) is shown in Table 2 and Table 3, respectively. The methodology for determining the ability of the compounds of the instant invention to inhibit the glutamate-stimulated calcium influx (GCI) into cultured rat cortical neurons is to be found in: A. W. Probert and F. W. Marcoux, Soc. Neurosci. Abstr. 13, Part II, 754 (1987). Using a similar culture system, the ability of the compounds of the instant invention to inhibit the hypoxia-stimulated influx of calcium (HCI) was determined by incubating cultured cells in an atmosphere of nitrogen (95%) and CO2 (5%) at 37° C. for a period of four hours. Calcium influx was determined by subtraction of the stimulated influx in the presence of tetrodotoxin (3 μM) and magnesium (10 mM) from that found in the absence (control) and in the presence of the test substance.

For test [3], the system named is cultured rat cortical neurons. In words: Inhibition of hypoxia stimulated [^45 Ca] influx (HCI) into cultured rat cortical neurons. Particulars: Cortical neurone, 4 h, hypoxia stimulated [^45 Ca] influx (CHCI), Table 3, nitrogen (95%) and CO2 (5%), 37° C., four hours, read-out: CGCI IC50. It counts as cell-based.
Source text: as §1

Where a name gives a salt, the structure may show the parent alone.

Turning to `N[C@]12CCCC[C@H]1CCc1ccccc12` (relative stereo) [Example 2, Cis-1,3,4,9-10,10a-hexahydro-4a(2H)-phenanthrenamine monohydrochloride], the half-maximal inhibitory concentration (IC50) in test [1] was 20 nM; in test [2], 100 nM.
Take `C=CCN[C@]12CCCC[C@H]1CCc1ccccc12` (relative stereo) [Example 5, N-Allyl-cis-1,3,4,9,10,10a-hexahydro-4a(2H)-phenanthrenamine monohydrochloride]: the values for the 50% inhibitory concentration (IC50) in test [1], in test [3] and in test [2] were 100 nM, 660 nM and 902 nM, respectively.
`CNC12CCCCC1Sc1ccccc12` (stereo not drawn) [* (X = S), reference compound]: the concentration for half-maximal inhibition (IC50) is 180 nM in test [3] and 210 nM in test [2].
In the case of `CN[C@]12CCCC[C@H]1CCc1ccccc12` (relative stereo) [Example 4, Cis-1,3,4,9,10,10a-hexahydro-N-methyl-4a(2H)-phenanthrenamine monohydrochloride], the concentration for half-maximal inhibition (IC50) in test [1] worked out at 15 nM; in test [3], 180 nM; in test [2], 410 nM.
In turn, `CNC12CCCCC1Cc1ccccc12` (stereo not drawn) [* (X = CH2)] had an IC50 in test [1] of 16 nM.
Still for that read-out and setting: the figure for `c1csc(C2(N3CCCCC3)CCCCC2)c1` [TCP, 1[1-(2-thienyl)cyclohexyl]piperidine] is 9 nM.

Usually IC50 stands for the point on the concentration scale where inhibition reaches its midpoint.

Values taken from patent US5276053A, “Polycyclic amines useful as cerebrovascular agents” (Warner-Lambert Company, priority 1992, dated 1994).
